Source: the CheMixHub ionic liquid set
Where “and” joins values, the source holds several entries; their conditions need not be identical. Equal values may be shown once.

Test: xn = mol fraction of the nth substance listed
Details: for electrical conductivity: 101.3 kPa

O=C([O-])CC(O)(CC(=O)[O-])C(=O)[O-].[Li+].[Li+].[Li+] + CC[n+]1ccn(C)c1.O=S(=O)([O-])O + O
viscosity [mPa·s], 101 kPa
Details | 293.15 K | 298.15 K | 303.15 K | 308.15 K | 313.15 K
x1 = 0.0003639, x2 = 0 | 1.022 | 0.927 | 0.835 | 0.757 | 0.691
x1 = 0.0007293, x2 = 0 | 1.043 | 0.946 | 0.854 | 0.776 | 0.712
x1 = 0.0008074, x2 = 0.0007287 | 1.082 | 1.003 | 0.885 | 0.81 | 0.751
x1 = 0.0008123, x2 = 0.000664 | 1.069 | 0.99 | 0.883 | 0.811 | 0.734
x1 = 0.0008236, x2 = 0.0009246 | 1.112 | 1.003 | 0.906 | 0.825 | 0.745
x1 = 0.0009579, x2 = 0.0007286 | 1.09 | 1.01 | 0.892 | 0.817 | 0.758
x1 = 0.000959, x2 = 0.0006639 | 1.077 | 0.996 | 0.89 | 0.818 | 0.741
x1 = 0.001091, x2 = 0 | 1.063 | 0.961 | 0.869 | 0.793 | 0.729
x1 = 0.001134, x2 = 0.0009243 | 1.13 | 1.017 | 0.92 | 0.84 | 0.761
x1 = 0.001339, x2 = 0.0009241 | 1.142 | 1.025 | 0.929 | 0.849 | 0.771
x1 = 0.001445, x2 = 0 | 1.083 | 0.974 | 0.883 | 0.807 | 0.745
x1 = 0.001498, x2 = 0.0007282 | 1.121 | 1.032 | 0.914 | 0.841 | 0.784
x1 = 0.001582, x2 = 0.0006634 | 1.113 | 1.021 | 0.915 | 0.845 | 0.769
x1 = 0.001715, x2 = 0.000728 | 1.134 | 1.04 | 0.923 | 0.85 | 0.794
x1 = 0.001743, x2 = 0.0006633 | 1.122 | 1.026 | 0.922 | 0.852 | 0.776
x1 = 0.001787, x2 = 0.0009237 | 1.169 | 1.042 | 0.947 | 0.869 | 0.791
x1 = 0.001793, x2 = 0 | 1.102 | 0.986 | 0.896 | 0.821 | 0.759
x1 = 0.002226, x2 = 0 | 1.126 | 1 | 0.911 | 0.837 | 0.777
x1 = 0.002241, x2 = 0.000663 | 1.15 | 1.044 | 0.94 | 0.871 | 0.797
x1 = 0.002241, x2 = 0.0007276 | 1.164 | 1.059 | 0.942 | 0.871 | 0.817
x1 = 0.002293, x2 = 0.0009233 | 1.198 | 1.061 | 0.967 | 0.89 | 0.814
x1 = 0.002592, x2 = 0.0006628 | 1.17 | 1.055 | 0.952 | 0.884 | 0.811
x1 = 0.002633, x2 = 0.0007274 | 1.186 | 1.073 | 0.956 | 0.886 | 0.833
x1 = 0.002689, x2 = 0.0009229 | 1.221 | 1.074 | 0.981 | 0.906 | 0.831
x1 = 0.002748, x2 = 0 | 1.155 | 1.016 | 0.928 | 0.855 | 0.797

CCCCCCCCCn1cc[n+](C)c1.O=S(=O)([N-]S(=O)(=O)C(F)(F)F)C(F)(F)F + O
100 kPa, x2 = 0.1736
Details | viscosity [mPa·s]
298.15 K | 72.66
308.15 K | 46.59
318.15 K | 31.72
323.15 K | 26.65
358.15 K | 10.15
363.15 K | 9.09

CCCCCC[n+]1ccn(C)c1.[Cl-] + OC[C@H]1O[C@@](CO)(O[C@H]2O[C@H](CO)[C@@H](O)[C@H](O)[C@H]2O)[C@@H](O)[C@@H]1O + O
298.15 K
Details | electrical conductivity
x2 = 0, x1 = 4.23e-06 | 0.00276 S/m
x2 = 0, x1 = 7.11e-06 | 0.00451 S/m
x2 = 0, x1 = 1.01e-05 | 0.00631 S/m
x2 = 0, x1 = 1.293e-05 | 0.008 S/m
x2 = 0, x1 = 1.551e-05 | 0.00953 S/m
x2 = 0, x1 = 1.836e-05 | 0.01121 S/m
x2 = 0, x1 = 2.116e-05 | 0.0129 S/m
x2 = 0, x1 = 2.393e-05 | 0.0145 S/m
x2 = 0, x1 = 2.652e-05 | 0.016 S/m
x2 = 0, x1 = 2.919e-05 | 0.0175 S/m
x2 = 0.003591, x1 = 8.04e-06 | 0.00433 S/m
x2 = 0.003591, x1 = 1.174e-05 | 0.00611 S/m
x2 = 0.003591, x1 = 1.526e-05 | 0.00778 S/m
x2 = 0.003591, x1 = 1.864e-05 | 0.00936 S/m
x2 = 0.003591, x1 = 2.202e-05 | 0.0109 S/m
x2 = 0.003591, x1 = 2.53e-05 | 0.01242 S/m
x2 = 0.003591, x1 = 2.853e-05 | 0.0139 S/m
x2 = 0.003591, x1 = 3.177e-05 | 0.01532 S/m
x2 = 0.003591, x1 = 3.49e-05 | 0.0167 S/m
x2 = 0.003591, x1 = 3.779e-05 | 0.018 S/m
x2 = 0.007156, x1 = 6.71e-06 | 0.00314 S/m
x2 = 0.007156, x1 = 1.012e-05 | 0.00459 S/m
x2 = 0.007156, x1 = 1.35e-05 | 0.00603 S/m
x2 = 0.007156, x1 = 1.699e-05 | 0.00749 S/m
x2 = 0.007156, x1 = 2.028e-05 | 0.00888 S/m
x2 = 0.007156, x1 = 2.319e-05 | 0.0101 S/m
x2 = 0.007156, x1 = 2.608e-05 | 0.01131 S/m
x2 = 0.007156, x1 = 2.915e-05 | 0.0126 S/m
x2 = 0.007156, x1 = 3.212e-05 | 0.0138 S/m
x2 = 0.007156, x1 = 3.545e-05 | 0.01517 S/m
x2 = 0.0107, x1 = 7.99e-06 | 0.00313 S/m
x2 = 0.0107, x1 = 1.176e-05 | 0.00442 S/m
x2 = 0.0107, x1 = 1.521e-05 | 0.00559 S/m
x2 = 0.0107, x1 = 1.87e-05 | 0.00676 S/m
x2 = 0.0107, x1 = 2.207e-05 | 0.00787 S/m
x2 = 0.0107, x1 = 2.533e-05 | 0.00894 S/m
x2 = 0.0107, x1 = 2.851e-05 | 0.00998 S/m
x2 = 0.0107, x1 = 3.135e-05 | 0.0109 S/m
x2 = 0.0107, x1 = 3.442e-05 | 0.0119 S/m
x2 = 0.0107, x1 = 3.724e-05 | 0.0128 S/m
x2 = 0.01421, x1 = 1.053e-05 | 0.00345 S/m
x2 = 0.01421, x1 = 1.542e-05 | 0.00495 S/m
x2 = 0.01421, x1 = 2.022e-05 | 0.00641 S/m
x2 = 0.01421, x1 = 2.485e-05 | 0.00781 S/m
x2 = 0.01421, x1 = 2.901e-05 | 0.00905 S/m
x2 = 0.01421, x1 = 3.286e-05 | 0.0102 S/m
x2 = 0.01421, x1 = 3.675e-05 | 0.01135 S/m
x2 = 0.01421, x1 = 4.055e-05 | 0.0125 S/m
x2 = 0.01421, x1 = 4.424e-05 | 0.0136 S/m
x2 = 0.01421, x1 = 4.811e-05 | 0.0147 S/m
x2 = 0.0177, x1 = 9.25e-06 | 0.00262 S/m
x2 = 0.0177, x1 = 1.338e-05 | 0.0037 S/m
x2 = 0.0177, x1 = 1.736e-05 | 0.00474 S/m
x2 = 0.0177, x1 = 2.112e-05 | 0.00571 S/m
x2 = 0.0177, x1 = 2.447e-05 | 0.00658 S/m
x2 = 0.0177, x1 = 2.813e-05 | 0.00751 S/m
x2 = 0.0177, x1 = 3.139e-05 | 0.00835 S/m
x2 = 0.0177, x1 = 3.466e-05 | 0.00918 S/m
x2 = 0.0177, x1 = 3.742e-05 | 0.00987 S/m
x2 = 0.0177, x1 = 4.046e-05 | 0.0106 S/m
x2 = 0.02116, x3 = 0.9787 | 0.01832 S/m
x2 = 0.02116, x3 = 0.9788 | 0.014 S/m and 0.0154 S/m and 0.0169 S/m
